Results reported in paper PMC10445283, “Boronate-Based Oxidant-Responsive Derivatives of Acetaminophen as Proinhibitors of Myeloperoxidase” (Chemical Research in Toxicology, 2023).
Where “and” joins values, the source holds several entries; their conditions need not be identical. Equal values may be shown once. Entries after “also recorded” stand apart in the source; their conditions may differ. Read-outs that look alike come from different tables or passages of the source. Values belong to the compound of their own block, whether it stands above or below them.

Legend:
[1] = Competition kinetics with FLBA: reaction with ONOO–; type: physicochemical; conditions: pH 7.4, 50 mM phosphate buffer
Procedure: (§1) The rate constants of the reactions of AMBB and AAPBA with ONOO^– and HOCl were determined by a competition kinetic method using FLBA as a reference compound.[18],[21],[22] In this approach, two pseudo-first-order reactions were assumed, a reaction between FLBA and the selected oxidant, ONOO^– or HOCl (eq 1), and between the investigated acetaminophen derivative (R-B(OH)2) and the oxidant (eq 2). Typically, the set of samples containing FLBA (20 μM), phosphate buffer (50 mM, pH 7.4), and AMBB or AAPBA (0–160 μM) in Eppendorf tubes was prepared. A concentrated basic solution of HOCl or ONOO^– was then added to the samples and rapidly mixed. The resulting concentration of an appropriate oxidant was 1.5 μM. Next, the samples were transferred to a 96-well plate, and the fluorescence intensity of the formed fluorescein was measured. The fluorescence intensity was followed with a Varioscan LUX plate reader using λex = 490 nm, λem = 515 nm, and slit widths of 12 nm.

[2] = Competition kinetics with FLBA: reaction with HOCl; type: physicochemical; conditions: pH 7.4, 50 mM phosphate buffer
Procedure: as §1

[3] = target: T1, MPO from human neutrophils (Homo sapiens, UniProt P05164); test: NBD-TM oxidation assay of MPO-derived HOCl; type: biochemical; conditions: for IC50: NBD-TM 20 μM, MPO 0.1 nM, H2O2 10 μM, NaCl 0.1 M, pH 7.4, 5 min, read-out: IC50, inhibition of MPO chlorinating activity
T1 construct: MPO from human neutrophils was obtained from Athens Research and Technology (Athens, GA); purchased Athens Research and Technology (Athens, GA); host or cells: human neutrophils (natural source)
T1 sequence (P05164 279-745 limits assumed): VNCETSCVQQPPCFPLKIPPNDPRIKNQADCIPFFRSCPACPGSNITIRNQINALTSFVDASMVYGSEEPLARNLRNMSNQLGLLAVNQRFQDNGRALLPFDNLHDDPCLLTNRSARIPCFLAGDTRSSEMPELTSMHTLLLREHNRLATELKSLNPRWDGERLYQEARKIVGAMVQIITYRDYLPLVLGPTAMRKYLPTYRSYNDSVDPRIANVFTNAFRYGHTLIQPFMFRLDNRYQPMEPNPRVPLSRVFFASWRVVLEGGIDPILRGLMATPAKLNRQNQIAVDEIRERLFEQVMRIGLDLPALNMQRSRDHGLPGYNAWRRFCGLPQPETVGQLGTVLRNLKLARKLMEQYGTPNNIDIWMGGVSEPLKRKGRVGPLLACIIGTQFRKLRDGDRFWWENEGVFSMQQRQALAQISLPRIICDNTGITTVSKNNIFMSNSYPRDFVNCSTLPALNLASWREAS
T1 sequence (P05164 165-273 limits assumed): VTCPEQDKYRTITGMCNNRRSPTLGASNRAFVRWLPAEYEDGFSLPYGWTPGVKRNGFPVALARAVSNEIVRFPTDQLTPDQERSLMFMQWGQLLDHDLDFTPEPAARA
Procedure: (§2) The performance of AM and its derivatives in inhibition of the MPO chlorinating activity was evaluated using dose–response curves. The half maximal inhibitory concentration (IC50) values were determined on the basis of three independent measurements using a dose–response fitting mode implemented in OriginPro 2020 (OriginLab Corp.) software. […] MPO stock solution was prepared according to the supplier’s instruction by dissolving lyophilized powder of MPO in distilled water and was stored at 6 °C. The desired MPO activity was obtained by dilution of the stock solution with phosphate buffer (50 mM, pH 7.4) containing sodium chloride (0.1 M).
MPO-derived HOCl was monitored by an NBD-TM probe according to the previously described procedure (Supplementary Figure S5).[18] Briefly, to 96-well plates containing MPO, NBD-TM (40 μM), the studied compounds, phosphate buffer (100 mM, pH 7.4), and sodium chloride (0.2 M), 20 μM solution of hydrogen peroxide was added to start the reaction (mixing ratio 1:1 v/v). Then, the changes of fluorescence intensity were measured by Varioscan LUX using λex = 475 nm, λem = 575 nm, and slits width of 12 nm. This enabled the direct monitoring of fluorescent NBD-TSO formation.
The MPO inhibitory activity of AM was compared with its two synthesized boronated derivatives (Figure 1). […] In the taurine-based assay, HOCl oxidizes taurine to taurine N-chloramine. The resulting N-chloramine is then quantified in a reaction with N,N,N′,N′-tetramethylbenzidine catalyzed by potassium iodide.[20] In the case of the NBD-TM probe, in the presence of HOCl, the sulfur atom in the probe is oxidized to sulfoxide, producing a highly fluorescent NBD-TSO.[18]

[4] = Pseudo-first-order kinetics of reaction with H2O2 (UPLC); type: physicochemical; conditions: pH 7.4, 20 mM phosphate buffer, 0.2–1 mM H2O2
Procedure: The rate constants for H2O2 and the studied boronic acids were determined directly under the pseudo-first-order conditions. Typically, the incubation mixtures contained boronic acid (20 μM), phosphate buffer (20 mM), CH3CN (2.5% v/v), and at least 10-fold excess of H2O2 (0.2–1 mM). The changes of analyte concentrations were followed by UPLC using a photodiode array detector (λmax = 250 ± 1.2 nm). On the basis of kinetic traces of AMBB and AAPBA decay (Supplementary Figure S6), the pseudo-first-order rate constants were determined. The second-order rate constants were calculated using the linear relationship between the determined pseudo-first-order rate constants and H2O2 concentrations.

[5] = target: T1, MPO from human neutrophils; test: Taurine N-chloramine/TMB assay of MPO-derived HOCl; type: biochemical; conditions: for IC50: read-out: IC50, inhibition of MPO chlorinating activity
Procedure: as §2
The diluted MPO solution was pipetted directly into the 96-well plate (1.45 μL). […] The prepared 96-well plate was incubated for 5 min, and the reaction was started by the addition of 110 μL per well of 20 μM H2O2 solution in water. The plate was incubated for another 5 min, and then 200 μL of the incubation mixtures was transferred to another 96-well plate prefilled with catalase solution (10 kU/mL, 2 μL per well) to remove unreacted hydrogen peroxide and to stop the reaction. Next, 50 μL per well of developing reagent composed of 2 mM TMB, 100 μM potassium iodide, and 0.32 M acetate buffer (pH 5.4) was added, and absorbance at 645 nm was measured by a Varioscan LUX (Thermo Fisher Scientific) plate reader controlled by SkanIt 6.0.2 software. The typical chlorinating activity of MPO during the inhibition experiments was 5 nM/s HOCl as determined using a CBA oxidation-based assay.[18] The concentration of H2O2 in the stock solution was determined spectrophotometrically at 240 nm using the molar extinction coefficient ε = 43.6 M^–1 cm^–1. The chemical structures of the TMB and CBA probes, along with their oxidation products, are presented in Supplementary Figure S5.
The MPO inhibitory activity of AM was compared with its two synthesized boronated derivatives (Figure 1). […] The resulting N-chloramine is then quantified in a reaction with N,N,N′,N′-tetramethylbenzidine catalyzed by potassium iodide.[20] […]

[6] = Spontaneous conversion of AMB-OH into acetaminophen (UPLC); type: physicochemical
Procedure: Ultra-performance liquid chromatograph (UPLC) Acquity (Waters Ltd.) equipped with a photodiode array detector and combined with an LCT Premier XE (Waters Ltd.) mass spectrometer was used for the chromatographic separation and identification of AMBB and AAPBA oxidation products. Separation was performed on a reversed-phase C18 UPLC column (Waters Acquity UPLC BEH C18 […], 50 × 2.1 mm) equilibrated with a water/acetonitrile (CH3CN) (90/10 v/v) mobile phase containing 0.1% (v/v) trifluoroacetic acid (TFA). The analytes were separated at a flow rate of 0.3 mL/min. During the first 0.5 min of analysis, the composition of the mobile phase remained unchanged. […] The injection volume was 2 μL, the sample temperature was 20 °C, and the column temperature was 40 °C. The electrospray source was operated at positive ion mode using the following parameters: capillary voltage 2.8 kV, sample cone voltage 60 V, desolvation temp. 350 °C, source temp. 100 °C, desolvation gas flow 800 L/h, and cone gas flow 50 L/h. The MCP detector voltage was 2.5 kV.
Figure 4 Kinetics of the conversion of AMB-OH into acetaminophen (AM). AMB-OH was produced in situ by mixing 50 μM AMBB with 50 μM NaOCl in 20 mM phosphate buffer, pH 7.4. (A) UPLC peak areas of AMB-OH (open squares) and AM (open circles) as a function of incubation time. UPLC peak areas were integrated for chromatograms extracted at 250 ± 1.2 nm. (B) Scheme of the quinone methide moiety elimination by AMB-OH to form AM. TEXT PRINTED IN THE PICTURE: (A) AM: ^1k = (1.85 ± 0.01) × 10^-4 s^-1 | (A) AMB-OH: ^1k = (2.00 ± 0.01) × 10^-4 s^-1

MPO = target: T2, MPO (Homo sapiens, UniProt P05164); test: MPO-dependent HOCl generation (summary values); type: biochemical
T2 construct: MPO from human neutrophils was obtained from Athens Research and Technology (Athens, GA); purchased Athens Research and Technology (Athens, GA); host or cells: human neutrophils (natural source)
T2 sequence (P05164 279-745 limits assumed): as the sequence (P05164 279-745 limits assumed) above
T2 sequence (P05164 165-273 limits assumed): as the sequence (P05164 165-273 limits assumed) above
Procedure: as §2

[7] = Solubility in MPO assay mixture; type: physicochemical; conditions: above 0.3 mM in assay mixture, pH 7.4, 3% methanol
Procedure: For AMBB, in the range of 0 nM to 0.3 mM, no inhibition of HOCl production was observed (Figure 1A).

[8] = design: method as in PMID 3395354; conditions: pH 7; cited from earlier work
COX-2 = conditions: reference not given; read-out: IC50 for the inhibition of COX-2; cited from earlier work
[9] = cited from earlier work
[10] = design: method as in PMID 34884784; conditions: previously reported; cited from earlier work
[11] = abstract summary, read-out: IC50 toward MPO-dependent HOCl generation

IC50 [3]: 394 ± 2 µM | IC50 [5]: 420 ± 60 µM
Compound: CC(=O)Nc1ccc(B(O)O)cc1 [AAPBA, 4-Acetamidophenylboronic Acid]
second-order rate constant of reaction with ONOO– [1]: (1.1 ± 0.3) × 10^6 M^–1 s^–1 | second-order rate constant of reaction with HOCl [2]: (1.72 ± 0.01) × 10^4 M^–1 s^–1 | second-order rate constant of reaction with H2O2 [4]: 1.9 ± 0.1 M^–1 s^–1

time to complete conversion into AM ([6]; pH 7.4, room temperature): 5 h | half-life ([6]; phosphate buffer, pH 7.4, pH 7.4, room temperature, read-out: half-life time (converted)): 1 h
Compound: CC(=O)Nc1ccc(OCc2ccc(O)cc2)cc1 [AMB-OH, N-[4-(4-hydroxybenzyloxy)phenyl]acetamide]

IC50 (MPO; [11]): > 300 µM | solubility [7]: limited solubility and precipitation
Compound: CC(=O)Nc1ccc(OCc2ccc(B(O)O)cc2)cc1 [AMBB, (4-((4-Acetamidophenoxy)methyl)phenyl)-boronic Acid]
inhibitory effect on HOCl production activity of MPO ([3]; no taurine, effect seen in the 0.1–0.3 mM range): shows the inhibitory effects; also recorded: exhibits inhibitory activity | second-order rate constant of reaction with H2O2 [4]: 1.67 M^–1 s^–1 and 1.67 ± 0.02 M^–1 s^–1 | inhibition of HOCl production ([5]; in the presence of taurine, 0 nM to 0.3 mM compound): no inhibition; also recorded: not show any inhibitory activity; also recorded: failed to inhibit the chlorination cycle

IC50 [3]: 135 ± 9 µM | IC50 (MPO; [11]): 140 µM | IC50 (MPO; rounded value in discussion, read-out: IC50 for the inhibition of MPO): 150 µM | IC50 [5]: 153 ± 9 µM
Compound: CC(=O)Nc1ccc(O)cc1 [Acetaminophen, N-(4-hydroxyphenyl)acetamide]
electrode potential E°′ (AM-OH/AM-O·,H+ redox couple) [8]: 0.71 ± 0.01 V | first-order rate constant of AM build-up from AMB-OH ([6]; pH 7.4, 20 mM phosphate buffer): (1.85 ± 0.01) × 10^-4 s^-1 | IC50 (COX-2): […]

Compound: O=C(O)c1ccccc1-c1c2ccc(=O)cc-2oc2cc(B(O)O)ccc12 [FLBA, reference compound]
rate constant of reaction with HOCl ([9]; previously reported): 1.11 × 10^4 M^–1 s^–1 | rate constant of reaction with ONOO– [10]: 1.0 × 10^6 M^–1 s^–1

Compound: O=c1[nH]c(=O)c2[nH]c(=O)[nH]c2[nH]1 [uric acid]
bimolecular rate constant of reaction with HOCl ([9]; pH 7): 3 × 10^5 M^–1 s^–1
